Test results taken from patent publication US20250195444A1, “POLYMER-COATED NANOPARTICLES AND PREPARATION METHOD THEREFOR” (SCINDY PHARMACEUTICAL (SUZHOU) CO., LTD, priority 2022, published 2025).

Key:
[1] = system: Carbapenem-susceptible Acinetobacter baumannii (10); experiment: In vitro antimicrobial susceptibility testing, broth microdilution MIC; assay type: cell-based; details: 10 strains
Source text: (§1) A total of 44 strains of clinically isolated Gram-negative bacteria were collected for antimicrobial susceptibility testing, including 12 strains of Escherichia coli (carbapenem-susceptible), 12 strains of Klebsiella pneumoniae (carbapenem-susceptible), 10 strains of Acinetobacter baumannii (carbapenem-susceptible), and 10 strains of Pseudomonas aeruginosa (carbapenem-susceptible).
(§2) According to the recommendations of the 2021 edition of the Clinical and Laboratory Standards Institute (CLSI), a broth microdilution method was used to measure the minimum inhibitory concentration (MIC) of a test substance against clinical isolates. • (1) Preparation of antimicrobial drug: The test drug was dissolved and diluted, and the control drug was dissolved and diluted according to CLSI requirements. The test concentration range of the antibacterial drug solution was 0.015 mg/L to 32 mg/L. • (2) Culture medium: Cation adjusted muellerhinton broth (CAMHB), a product of BD Company, USA, batch number: 9324795. • (3) Inoculation amount: Fresh pure colonies on Columbia blood agar were picked using a direct colony suspension method. The colonies were adjusted to a McFarland turbidity of 0.5 and then appropriately diluted. The final concentration of the test bacteria was 10^5 CFU/mL. • (4) Culture conditions: The colonies were cultured in air at 35° C.±2° C. for 16 to 20 hours. • (5) Reading and judgment of results: For colistin, according to the European EUCAST breakpoint judgment standard, a result of <2 mg/L is susceptible, and a result of >4 mg/L is resistant. The lowest antimicrobial drug concentration that inhibits bacterial growth is read as an MIC value. • (6) Quality control strains: Escherichia coli ATCC 25922 and Pseudomonas aeruginosa ATCC 27853. • (7) Data statistics: WHONET version 5.6 software was used to perform statistical analysis on the results of the antimicrobial susceptibility testing.

[2] = system: Carbapenem-susceptible Escherichia coli (12); experiment: as above; assay type: cell-based; details: 12 strains
Source text: as §1, §2

[3] = system: Carbapenem-susceptible Gram-negative bacteria (44); experiment: as above; assay type: cell-based; details: 44 strains
Source text: as §1, §2

[4] = system: Carbapenem-susceptible Klebsiella pneumoniae (12); experiment: as above; assay type: cell-based; details: 12 strains
Source text: as §1, §2

[5] = system: Carbapenem-susceptible Pseudomonas aeruginosa (10); experiment: as above; assay type: cell-based; details: 10 strains
Source text: as §1, §2

[6] = Safety test, maximum tolerated dose in ICR mice; assay type: in vivo; details: male ICR mice, intravenous injection, 1.5 mg/ml
Source text: The drug safety of colistin sulfate, the nanoparticles of Examples 1 and 2, and the nanoparticles of Comparative Examples 1 and 2 in mice was compared.
Test indicators: clinical observation, animal morbidity/death, and weight change. The maximum compound dosage that causes the weight loss of mice to not exceed 20% and no animal death is the maximum tolerated dose.

HT29 cells = experiment: Proliferation of HT29 cells in vitro (CCK8); assay type: cell-based; details: 72 hours of drug treatment, read-out: HT-29ReIC50
Description: Cell culture: HT29 (Cat. No.: CBP30001L, purchased from Cobioer) was revived and cultured with 1640+10% FBS.
Plating: Normally growing cells were digested with a trypsin cell digestion solution, then centrifuged, counted, and plated into a 96-well plate at a cell density of 3000 cells/well, 100 μL per well, for a total of 60 wells, and sealed with an appropriate amount of PBS around to prevent water evaporation in the edge wells.
Administration: The administration was performed on the second day after cell plating, 100 μL of a drug solution was added to each well, and two replicate wells were set up for each concentration point.
Detection: After 72 hours of drug treatment, all the liquid in the 96-well plate was poured out, and 100 μL of a CCK8 (diluted to 1:9 with culture medium) solution was added to each well. After incubation at 37° C. for a period of time (OD450 of Vehicle group reached above 1.0), the absorption at 450 nm was detected using an ELISA reader.
Data processing: Inhibition Rate (%)=(1−OD450Sample/OD450Vehicle)×100, where
OD450Sample is the 450 nm absorption value of the drug-treated group, and OD450Vehicle is the 450 nm absorption value of the DMSO control group. GraphPad Prism 8.0 software was used to draw an S-shaped dose-survival rate curve with a nonlinear regression model, and the IC50 value was calculated.

[7] = Safety test, maximum tolerated dose in Balb/c nude mice; details: male Balb/c nude mice, intravenous injection, 1.0 mg/ml
Description: Male Balb/c nude mice (purchased from Shanghai Lingchang Experimental Animal Co., Ltd.), 6 to 7 weeks old and weighing 17 g to 21 g, were given platinum cyclohexanediamine dihydrate or a platinum cyclohexanediamine dihydrate polymer-coated nanoparticle solution by intravenous injection at an administration concentration of 1.0 mg/ml. The dose volume was adjusted according to the weight of the animal. The highest dose that enables all subjects in the test to survive continuously is defined as MTD.
Animal grouping: Before starting the administration, the animals were weighed and randomly grouped according to the weight.
Test indicators: After administration, the mice were observed continuously for at least 14 days, and the observation interval and frequency were properly arranged so as to observe the occurrence of toxic reactions, recovery time, animal death time, etc. If the toxic reactions of the mice occur slowly or the mice recover slowly, the observation time should be appropriately extended.

colistin sulfate
MIC50 [1]: 0.5 µg/mL | MIC90 [1]: 0.5 µg/mL | Mode (MIC) [1]: 0.5 µg/mL | Resistance rate (%) ([1]; EUCAST breakpoint): 0% | Susceptibility rate (%) ([1]; EUCAST breakpoint): 100% | MIC50 [2]: 0.125 µg/mL | MIC90 [2]: 0.25 µg/mL | Mode (MIC) [2]: 0.125 µg/mL | Resistance rate (%) ([2]; EUCAST breakpoint): 0% | Susceptibility rate (%) ([2]; EUCAST breakpoint): 100% | MIC50 [3]: 0.5 µg/mL | MIC90 [3]: 2 µg/mL | Mode (MIC) [3]: 0.5 µg/mL | Resistance rate (%) ([3]; EUCAST breakpoint): 0% | Susceptibility rate (%) ([3]; EUCAST breakpoint): 100% | MIC50 [4]: 0.5 µg/mL | MIC90 [4]: 0.5 µg/mL | Mode (MIC) [4]: 0.5 µg/mL | Resistance rate (%) ([4]; EUCAST breakpoint): 0% | Susceptibility rate (%) ([4]; EUCAST breakpoint): 100% | MIC50 [5]: 1 µg/mL | MIC90 [5]: 2 µg/mL | Mode (MIC) [5]: 2 µg/mL | Resistance rate (%) ([5]; EUCAST breakpoint): 0% | Susceptibility rate (%) ([5]; EUCAST breakpoint): 100% | MTD [6]: 8 mg/kg

platinum cyclohexanediamine dihydrate [Cyclohexanediamine platinum dihydrate]
IC50 (HT29 cells): 1610 ± 230 nM | MTD [7]: <4 mpk
